Patent publication US20120214874A1, “PHARMACEUTICAL FORMULATIONS AND METHODS OF USE” (Nuvo Research Inc., priority 2009, published 2012)

Assay: pH measurement of formulations and panthenol solutions (Experiments A-C, E)
Type: physicochemical
Experimental: Experiment A: AMP (0.0006%) was added to NRI-ANA-14 to replicate the AMP concentration in NRI-ANA-08. After AMP addition, the pH of NRI-ANA-08 was 4.1, and the pH of NRI-ANA-14 (+0.0006% AMP) was 4.2. This supported the hypothesis.
Experiment B: AMP (0.012%) was added to NRI-ANA-14 to replicate the AMP concentration in NRI-ANA-13. After AMP addition, the pH of NRI-ANA-13 was 4.8, and the pH of NRI-ANA-14 (+0.012% AMP) was 4.8. This supported the hypothesis.
Experiment C: A modified NRI-ANA-14 formulation containing 1.3% TEC and citric acid equivalent to 0.7% TEC was prepared. A control NRI-ANA-14 formulation was subjected to a stability study according to the method set forth in Example 19. After six months at 40° C., the pH of the control NRI-ANA-14 formulation was 2.6, while the pH of the modified NRI-ANA-14 formulation was 1.6. This supported the hypothesis.
Experiment E: The pH of 10% aqueous solution of D,L- and D-panthenol were measured. The pH of 10% D,L-panthenol was 6.7, but the pH of 10% D-panthenol was 9.4. This supported the hypothesis.

Substance	pH of 10% aqueous solution
2,4-dihydroxy-N-(3-hydroxypropyl)-3,3-dimethyl-butanamide [D,L-panthenol]	6.7
(2R)-2,4- dihydroxy-N- (3- hydroxy- propyl)-2,3,3- trimethyl- butanamide [D-panthenol]	9.4
